ChEMBL document CHEMBL1201862, “PubChem BioAssay data set” (2004)
Active and inactive are the calls of the source.

How the values were obtained:
[1] = molecular target: T1, Heat shock factor protein 1 (Mus musculus, UniProt P38532); experiment: HSF1 potentiators in luciferase reporter cells, confirmation, cell-based, NIH3T3, luminescence, dose retest (AID 435004); assay type: functional;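 further: stress induced by proteasome inhibitor MG132 added 30 min after compound; luciferase reporter driven by HSF1 response element in NIH3T3 cells; actives raise luminescence as potentiators of the MG132 stress response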
T1 sequence (P38532 whole entry): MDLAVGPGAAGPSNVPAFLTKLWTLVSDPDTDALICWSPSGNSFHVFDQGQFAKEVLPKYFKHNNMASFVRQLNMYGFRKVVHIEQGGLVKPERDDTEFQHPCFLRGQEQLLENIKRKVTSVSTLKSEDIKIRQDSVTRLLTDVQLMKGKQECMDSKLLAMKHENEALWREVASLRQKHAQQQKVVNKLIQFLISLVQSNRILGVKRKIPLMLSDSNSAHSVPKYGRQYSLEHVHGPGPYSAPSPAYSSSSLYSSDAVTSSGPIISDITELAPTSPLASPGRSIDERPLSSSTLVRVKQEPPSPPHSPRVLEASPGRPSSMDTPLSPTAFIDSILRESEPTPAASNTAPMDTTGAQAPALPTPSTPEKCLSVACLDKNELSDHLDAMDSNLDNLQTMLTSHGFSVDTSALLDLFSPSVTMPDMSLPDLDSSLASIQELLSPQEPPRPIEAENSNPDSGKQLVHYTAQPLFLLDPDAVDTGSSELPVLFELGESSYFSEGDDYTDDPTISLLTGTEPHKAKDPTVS

[2] = molecular target: Heat shock protein HSP 90-alpha (Homo sapiens, UniProt P07900); assay type: functional, organism-based
Large T antigen = Large T antigen (Simian virus 40, UniProt P03070); assay type: functional, Betapolyomavirus macacae;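 further: Confirmatory-stage PubChem screen for compounds that inhibit SV40 T antigen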
Large T antigen, sequence (P03070 whole entry): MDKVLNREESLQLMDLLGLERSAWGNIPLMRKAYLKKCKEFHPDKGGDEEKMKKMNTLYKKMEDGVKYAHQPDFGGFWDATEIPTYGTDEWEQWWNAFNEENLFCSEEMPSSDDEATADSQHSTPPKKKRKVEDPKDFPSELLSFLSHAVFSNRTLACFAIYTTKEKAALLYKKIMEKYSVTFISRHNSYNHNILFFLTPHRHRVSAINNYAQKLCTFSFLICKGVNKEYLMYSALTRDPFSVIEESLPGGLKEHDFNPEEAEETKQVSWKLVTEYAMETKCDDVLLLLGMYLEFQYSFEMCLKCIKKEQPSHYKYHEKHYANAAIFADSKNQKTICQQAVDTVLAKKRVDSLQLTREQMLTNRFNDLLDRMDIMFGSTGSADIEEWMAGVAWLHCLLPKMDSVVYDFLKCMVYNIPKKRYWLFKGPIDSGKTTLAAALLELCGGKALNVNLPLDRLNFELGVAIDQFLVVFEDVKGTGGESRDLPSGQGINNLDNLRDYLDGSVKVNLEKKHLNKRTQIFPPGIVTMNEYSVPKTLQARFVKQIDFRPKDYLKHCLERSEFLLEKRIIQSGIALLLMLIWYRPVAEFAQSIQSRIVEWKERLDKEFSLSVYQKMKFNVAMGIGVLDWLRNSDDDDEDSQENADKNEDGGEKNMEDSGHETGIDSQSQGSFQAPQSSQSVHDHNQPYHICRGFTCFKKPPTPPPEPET

Cytochrome P450 2C9 = Cytochrome P450 2C9 (Homo sapiens, UniProt P11712)
Cytochrome P450 2C9, sequence (P11712 whole entry): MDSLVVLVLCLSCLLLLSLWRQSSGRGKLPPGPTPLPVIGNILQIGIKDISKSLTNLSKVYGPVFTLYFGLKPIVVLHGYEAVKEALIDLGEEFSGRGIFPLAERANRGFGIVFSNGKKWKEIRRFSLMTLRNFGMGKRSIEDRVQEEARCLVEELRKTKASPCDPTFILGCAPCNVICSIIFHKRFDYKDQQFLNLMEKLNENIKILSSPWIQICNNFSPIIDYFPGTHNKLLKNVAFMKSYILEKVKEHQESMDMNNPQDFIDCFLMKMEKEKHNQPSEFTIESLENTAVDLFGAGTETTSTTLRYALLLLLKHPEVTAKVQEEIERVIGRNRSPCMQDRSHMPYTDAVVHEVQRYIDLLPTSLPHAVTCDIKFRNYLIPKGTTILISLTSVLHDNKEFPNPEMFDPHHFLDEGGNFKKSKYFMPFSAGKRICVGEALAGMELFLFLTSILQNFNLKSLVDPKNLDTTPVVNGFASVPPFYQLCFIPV

[3] = inhibitors of intracellular T. cruzi replication, confirmation, NIH3T3 host cells, beta-gal luminescence (AID 2044); assay type: functional, cell-based;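 further: intracellular parasites grown in NIH/3T3 mouse fibroblasts as host cells; luminescent beta-galactosidase reporter signal from transgenic T. cruzi replicating inside host cells; inhibitors lower the luminescence signal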
[4] = cytotoxicity toward NIH3T3 fibroblasts, dose response, counter-screen, cell-based, ATP luminescence, mouse fibroblasts (AID 2010); assay type: functional;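 further: cells exposed to compound for about 90 hours before reading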
[5] = molecular target: T2, Ubiquitin-conjugating enzyme E2 N (Homo sapiens, UniProt P61088); assay type: functional;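 further: Dose-response confirmation in a TR-FRET assay detecting UBC13-driven polyubiquitin chain formation, inhibition measured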
T2 sequence (P61088 whole entry): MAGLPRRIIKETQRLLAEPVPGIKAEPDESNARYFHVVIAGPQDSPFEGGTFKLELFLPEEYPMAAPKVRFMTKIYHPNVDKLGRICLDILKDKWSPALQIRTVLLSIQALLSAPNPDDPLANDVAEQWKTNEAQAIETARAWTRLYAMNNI

[6] = Luminescence Cell-Based Dose Retest to Confirm Inhibitors of Cancer Stem Cells. [Related pubchem assays (depositor defined):AID2717, AID2721]; assay type: functional; details: Homo sapiens
Fatty acid synthase [7] = molecular target: T3, Fatty acid synthase (Homo sapiens, UniProt P49327); experiment: FAS thioesterase domain inhibitors, dose response, biochemical, kinetic fluorescence intensity (AID 624326); assay type: functional;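 further: rate of fluorescence rise from hydrolysis of a fluorogenic O-methyl fluorescein ester substrate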
T3 sequence (P49327 whole entry, the tested form may be a part): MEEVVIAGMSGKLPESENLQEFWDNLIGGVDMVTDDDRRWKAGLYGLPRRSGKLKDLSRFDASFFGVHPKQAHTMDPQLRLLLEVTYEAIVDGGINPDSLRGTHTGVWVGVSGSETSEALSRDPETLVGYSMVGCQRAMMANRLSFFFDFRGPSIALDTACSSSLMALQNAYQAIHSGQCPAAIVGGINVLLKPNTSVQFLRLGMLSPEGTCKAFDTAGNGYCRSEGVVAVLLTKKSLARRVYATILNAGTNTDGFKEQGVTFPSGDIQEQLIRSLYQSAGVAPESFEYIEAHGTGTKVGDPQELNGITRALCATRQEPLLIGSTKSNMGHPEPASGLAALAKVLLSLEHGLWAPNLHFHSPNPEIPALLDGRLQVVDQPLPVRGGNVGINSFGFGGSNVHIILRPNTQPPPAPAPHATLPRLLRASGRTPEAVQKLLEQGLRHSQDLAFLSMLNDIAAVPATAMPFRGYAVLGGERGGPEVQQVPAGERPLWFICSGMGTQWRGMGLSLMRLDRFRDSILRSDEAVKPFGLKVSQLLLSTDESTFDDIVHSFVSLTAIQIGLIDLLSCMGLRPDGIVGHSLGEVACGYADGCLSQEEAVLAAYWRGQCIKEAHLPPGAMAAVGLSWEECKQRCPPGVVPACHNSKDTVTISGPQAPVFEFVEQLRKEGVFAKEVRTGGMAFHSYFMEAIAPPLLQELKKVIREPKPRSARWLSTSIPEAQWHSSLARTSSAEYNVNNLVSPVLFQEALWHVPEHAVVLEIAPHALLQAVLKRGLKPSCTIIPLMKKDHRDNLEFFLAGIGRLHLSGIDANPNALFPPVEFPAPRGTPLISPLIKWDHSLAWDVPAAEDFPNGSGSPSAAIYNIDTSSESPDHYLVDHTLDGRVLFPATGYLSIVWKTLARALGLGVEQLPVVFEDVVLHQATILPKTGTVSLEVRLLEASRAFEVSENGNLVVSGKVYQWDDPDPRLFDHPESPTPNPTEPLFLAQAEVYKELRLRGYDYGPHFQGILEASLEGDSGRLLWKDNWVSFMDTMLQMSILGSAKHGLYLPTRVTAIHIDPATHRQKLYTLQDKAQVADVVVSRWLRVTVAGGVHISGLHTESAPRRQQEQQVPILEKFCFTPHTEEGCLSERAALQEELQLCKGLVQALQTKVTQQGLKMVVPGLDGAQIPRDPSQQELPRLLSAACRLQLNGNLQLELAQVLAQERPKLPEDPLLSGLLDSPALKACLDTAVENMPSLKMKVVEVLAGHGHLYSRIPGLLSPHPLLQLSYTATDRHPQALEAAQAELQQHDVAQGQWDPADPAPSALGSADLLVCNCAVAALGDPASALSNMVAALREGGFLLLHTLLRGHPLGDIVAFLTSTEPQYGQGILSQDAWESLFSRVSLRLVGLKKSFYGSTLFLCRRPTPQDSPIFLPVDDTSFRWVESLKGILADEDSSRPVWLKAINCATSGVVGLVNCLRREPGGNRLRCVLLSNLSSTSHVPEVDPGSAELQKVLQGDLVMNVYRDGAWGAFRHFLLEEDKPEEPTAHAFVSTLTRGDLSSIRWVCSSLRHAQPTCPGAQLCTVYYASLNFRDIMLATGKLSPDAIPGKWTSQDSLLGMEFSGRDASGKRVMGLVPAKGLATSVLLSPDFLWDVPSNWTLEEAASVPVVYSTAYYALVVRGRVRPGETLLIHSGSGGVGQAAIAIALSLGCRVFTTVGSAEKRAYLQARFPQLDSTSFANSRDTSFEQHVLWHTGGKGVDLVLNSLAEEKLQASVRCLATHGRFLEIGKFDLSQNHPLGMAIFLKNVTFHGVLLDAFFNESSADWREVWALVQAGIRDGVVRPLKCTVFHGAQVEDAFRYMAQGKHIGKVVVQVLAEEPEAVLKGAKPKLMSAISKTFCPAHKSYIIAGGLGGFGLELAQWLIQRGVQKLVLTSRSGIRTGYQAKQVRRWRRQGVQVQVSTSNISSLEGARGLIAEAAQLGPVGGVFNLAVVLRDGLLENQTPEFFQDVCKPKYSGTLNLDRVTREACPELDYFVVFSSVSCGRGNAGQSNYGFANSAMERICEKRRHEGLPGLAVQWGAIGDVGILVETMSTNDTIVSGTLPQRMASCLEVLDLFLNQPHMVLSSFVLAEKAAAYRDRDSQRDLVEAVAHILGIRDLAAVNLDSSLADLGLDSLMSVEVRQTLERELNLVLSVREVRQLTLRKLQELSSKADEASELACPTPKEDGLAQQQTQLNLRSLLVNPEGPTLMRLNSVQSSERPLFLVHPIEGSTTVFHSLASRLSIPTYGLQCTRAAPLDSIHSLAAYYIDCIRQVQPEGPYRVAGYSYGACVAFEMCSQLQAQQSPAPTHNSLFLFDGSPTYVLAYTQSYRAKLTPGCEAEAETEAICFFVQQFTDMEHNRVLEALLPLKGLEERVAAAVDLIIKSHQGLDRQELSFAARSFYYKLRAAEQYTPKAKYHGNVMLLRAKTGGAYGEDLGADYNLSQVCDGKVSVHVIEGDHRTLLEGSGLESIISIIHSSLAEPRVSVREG

[8] = molecular target: T4, Replicative DNA helicase DnaB (Mycobacterium tuberculosis, UniProt P9WMR3); experiment: DnaB intein splicing inhibitors, dose response, biochemical, cell-free fluorescence (AID 449749); assay type: functional
T4 sequence (P9WMR3 whole entry): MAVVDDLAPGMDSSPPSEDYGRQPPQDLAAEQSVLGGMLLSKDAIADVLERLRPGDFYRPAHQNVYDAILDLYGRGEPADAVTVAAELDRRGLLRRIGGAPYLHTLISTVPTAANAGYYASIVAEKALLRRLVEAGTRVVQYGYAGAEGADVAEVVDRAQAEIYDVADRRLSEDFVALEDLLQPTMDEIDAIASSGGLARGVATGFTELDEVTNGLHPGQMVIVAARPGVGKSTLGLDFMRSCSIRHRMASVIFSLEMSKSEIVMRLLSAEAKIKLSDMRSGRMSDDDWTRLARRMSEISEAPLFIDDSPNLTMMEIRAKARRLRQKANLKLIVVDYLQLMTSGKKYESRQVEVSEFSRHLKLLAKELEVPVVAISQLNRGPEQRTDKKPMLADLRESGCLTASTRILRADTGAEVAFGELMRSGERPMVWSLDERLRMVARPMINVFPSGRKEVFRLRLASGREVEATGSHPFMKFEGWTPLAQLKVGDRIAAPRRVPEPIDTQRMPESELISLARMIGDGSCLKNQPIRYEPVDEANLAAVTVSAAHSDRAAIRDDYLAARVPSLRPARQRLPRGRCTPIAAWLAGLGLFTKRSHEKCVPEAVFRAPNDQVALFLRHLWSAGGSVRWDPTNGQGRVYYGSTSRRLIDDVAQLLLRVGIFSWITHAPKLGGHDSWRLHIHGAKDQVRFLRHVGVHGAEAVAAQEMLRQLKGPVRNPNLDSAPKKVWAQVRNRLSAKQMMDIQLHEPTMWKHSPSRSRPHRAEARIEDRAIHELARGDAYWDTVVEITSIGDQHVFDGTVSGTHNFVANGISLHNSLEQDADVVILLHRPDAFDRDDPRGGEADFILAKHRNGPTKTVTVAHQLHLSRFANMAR

cells = assay type: functional
Fatty acid synthase [9] = molecular target: T3, Fatty acid synthase; experiment: FAS thioesterase domain inhibitors, dose response, biochemical, endpoint fluorescence intensity, uHTS hits (AID 624327); assay type: functional;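 further: fluorescence from hydrolysis of an O-methyl fluorescein acyl ester substrate by the enzyme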
Protein RecA = molecular target: T5, Protein RecA (Mycobacterium tuberculosis, UniProt P9WHJ3); experiment: Fluorescence Cell-Free Homogeneous Dose Retest to Identify Inhibitors of RecA-Intein Splicing Activity. [Related pubchem assays (depositor defined):AID2097, AID2223, AID489010, AID492950]; assay type: functional
T5 sequence (P9WHJ3 whole entry): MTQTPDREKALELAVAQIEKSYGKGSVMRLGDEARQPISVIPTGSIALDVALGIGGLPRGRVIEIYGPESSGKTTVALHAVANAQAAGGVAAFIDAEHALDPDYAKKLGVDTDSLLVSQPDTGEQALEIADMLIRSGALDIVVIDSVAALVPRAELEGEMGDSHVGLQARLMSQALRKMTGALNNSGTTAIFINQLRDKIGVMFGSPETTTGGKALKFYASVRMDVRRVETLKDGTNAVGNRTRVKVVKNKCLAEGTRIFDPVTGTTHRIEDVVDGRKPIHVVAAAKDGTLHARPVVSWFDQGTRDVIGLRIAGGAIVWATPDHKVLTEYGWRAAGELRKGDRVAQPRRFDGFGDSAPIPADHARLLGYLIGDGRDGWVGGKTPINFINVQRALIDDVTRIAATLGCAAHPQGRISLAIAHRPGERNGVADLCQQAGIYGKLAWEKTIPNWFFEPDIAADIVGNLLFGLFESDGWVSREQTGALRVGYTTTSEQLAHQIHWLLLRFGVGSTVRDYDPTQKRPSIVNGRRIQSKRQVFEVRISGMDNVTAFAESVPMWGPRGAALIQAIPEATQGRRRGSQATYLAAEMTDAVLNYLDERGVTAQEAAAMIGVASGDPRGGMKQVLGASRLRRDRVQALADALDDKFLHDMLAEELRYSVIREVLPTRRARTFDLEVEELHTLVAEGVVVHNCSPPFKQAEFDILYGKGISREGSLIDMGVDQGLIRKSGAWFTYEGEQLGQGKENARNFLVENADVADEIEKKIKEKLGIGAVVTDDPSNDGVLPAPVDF

With `CCCCN=C(S)NNC(=O)c1csc2ccccc12` the EC50 [1] was > 260 µM (inactive).
With `CC(C)(C)C(=O)NCC12C=CC(O1)C1C(=O)N(c3ccccc3)C(=O)C12` (stereo unspecified) the AC50 [2] was 8.25 µM (active) and the EC50 [1] was > 260 µM (inactive).
For `CC(/C=N/n1c(S)nnc1-c1cccnc1)=C\c1ccccc1`, the IC50 (Large T antigen) was 58.1 µM (active).
In the case of `Cc1ccc(C(=O)ONC(=O)c2ccc(Cl)cc2)cc1[N+](=O)[O-]`, the AC50 [2] is reported as 4.03 µM (active).
With `O=[N+]([O-])c1ccc(/C=N/c2ccc(Cl)cc2Cl)s1` the AC50 [2] was 7.83 µM (active) and the AC50 (Cytochrome P450 2C9) was 2.24 µM (inconclusive).
With `COc1ccc(NC(=O)c2sccc2SCc2cccc(C(F)(F)F)c2)cc1` the EC50 [3] was 2.61 µM (active), the EC50 [1] was > 260 µM (inactive) and the EC50 [4] was > 60 µM (not active).
In the case of `CN(C)/C=C/C(=O)/C=C/c1cn(-c2ncc(C(F)(F)F)cc2Cl)c2ccccc12`, the AC50 [2] is reported as 2.9 µM (active).
For `c1ccc(C2(CN3CCNC[C@H]3Cc3cccc4ccccc34)CC2)cc1`, the IC50 [5] was > 20 µM (inactive).
For `CC(C)(C)OC(=O)NCCc1nnc(S(=O)(=O)Cc2ccc(Cl)cc2Cl)o1`, the AC50 [6] was 3.94 µM (active), the IC50 (Fatty acid synthase [7]) was 6.42 µM (active) and the AC50 [8] was 1.61 µM (active). For the same molecule, the IC50 (cells) was 30.1 µM (active), the IC50 (Fatty acid synthase [9]) was 4.23 µM (active) and the EC50 (Protein RecA) was 4.66 µM (active).
In the case of `CS(=O)(=O)Nc1cccc2cccnc12`, the IC50 (cells) is reported as 2.87 µM (active).
With `COc1ccc2nc3oc(C(=O)NC4CCN(Cc5ccccc5)CC4)cc3cc2c1` the IC50 [5] was > 20 µM (inactive).
In the case of `C/C(=N\NC(=O)Cn1cc([N+](=O)[O-])cn1)c1ccc(O)cc1`, the IC50 (Large T antigen) is reported as 54.5 µM (active).
